The record followed here is patent US6780891B2, “Tramadol analogs and uses thereof” (Sepracor Inc., priority 2001, dated 2004).

The subject of assay [1] is NE uptake. The class given is biochemical, Rat. Particulars: for IC50: read-out: IC50, functional monoamine uptake, NE.
Assay [2] concerns 5-HT uptake. As to the kind of experiment: Functional monoamine uptake: 5-HT uptake, rat brain synaptosomes. The note with it: for IC50: rat brain synaptosomes, [3H]5-HT, 15 min./37° C.; for Blocking 5-HT uptake compared with racemic tramadol and ODMT: comparison in words of Table 1 values. The class given is biochemical.
The target of assay [3] is T1, μ receptor (Rattus norvegicus, UniProt P33535). As to the kind of experiment: biochemical. Particulars: IC50, opioid binding, rat cerebral cortex, [3H]DAMGO 1 nM, 60 minutes/22° C.
T1 sequence (P33535 whole entry): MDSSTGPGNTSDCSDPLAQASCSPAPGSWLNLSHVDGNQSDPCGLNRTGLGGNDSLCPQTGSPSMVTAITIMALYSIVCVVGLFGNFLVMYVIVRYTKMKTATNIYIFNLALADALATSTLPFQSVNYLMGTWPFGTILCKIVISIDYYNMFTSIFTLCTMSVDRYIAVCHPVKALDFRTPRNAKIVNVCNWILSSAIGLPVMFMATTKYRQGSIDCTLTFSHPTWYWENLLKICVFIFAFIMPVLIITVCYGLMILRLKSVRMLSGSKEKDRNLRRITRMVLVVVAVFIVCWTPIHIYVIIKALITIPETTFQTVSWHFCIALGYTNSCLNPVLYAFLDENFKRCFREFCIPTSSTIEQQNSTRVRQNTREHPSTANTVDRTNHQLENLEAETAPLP
The target of assay [4] is T2, κ receptor (Cavia porcellus, UniProt P41144).
T2 construct: Following incubation, the membranes were rapidly filtered under vacuum through glass fiber filters; from tissue
T2 sequence (P41144 whole entry): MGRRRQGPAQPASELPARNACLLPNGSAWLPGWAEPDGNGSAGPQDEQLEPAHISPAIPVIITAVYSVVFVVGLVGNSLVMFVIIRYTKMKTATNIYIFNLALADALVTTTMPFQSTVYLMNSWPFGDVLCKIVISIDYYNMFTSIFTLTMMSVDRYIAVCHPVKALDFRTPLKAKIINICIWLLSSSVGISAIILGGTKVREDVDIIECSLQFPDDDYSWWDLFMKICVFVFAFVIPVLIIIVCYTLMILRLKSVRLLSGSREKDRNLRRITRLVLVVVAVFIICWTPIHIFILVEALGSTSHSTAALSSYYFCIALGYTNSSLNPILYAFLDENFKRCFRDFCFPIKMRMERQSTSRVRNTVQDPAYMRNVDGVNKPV
As to the kind of experiment: κ opioid receptor binding, [3H]U 69593. The note with it: guinea-pig cerebellum, [3H]U 69593 0.7 nM, 80 minutes/22° C.

Assay [5] deals with T3, δ receptor (Cavia porcellus, UniProt A0A286XTF2).
T3 construct: Following incubation, the membranes were rapidly filtered under vacuum through glass fiber filters; from tissue
T3 sequence (A0A286XTF2 1-366): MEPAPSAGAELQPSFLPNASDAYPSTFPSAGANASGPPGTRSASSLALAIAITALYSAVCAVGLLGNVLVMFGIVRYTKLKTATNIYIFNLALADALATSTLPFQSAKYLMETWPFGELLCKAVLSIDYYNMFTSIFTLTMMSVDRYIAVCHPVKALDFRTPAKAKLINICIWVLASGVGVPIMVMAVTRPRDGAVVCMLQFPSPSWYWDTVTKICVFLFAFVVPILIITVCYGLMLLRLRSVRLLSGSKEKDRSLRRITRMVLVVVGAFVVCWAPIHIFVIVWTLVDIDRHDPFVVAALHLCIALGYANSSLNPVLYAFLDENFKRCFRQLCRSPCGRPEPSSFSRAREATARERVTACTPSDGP
As to the kind of experiment: δ opioid receptor binding, [3H]DPDPE. Details: species or system Guinea-pig.

Assay [6] addresses T1, μ receptor. Particulars: for Affinity for the μ receptor compared with ODMT and racemic tramadol: comparison in words of Table 1 values.
Assay [7] has as its system DA uptake. As to the kind of experiment: Functional monoamine uptake: DA uptake, rat corpora striatum synaptosomes. The class given is biochemical. The note with it: [3H]DA, 15 min./37° C. How it is done:
Radioactivity was determined with a scintillation counter (Topcount, Packard) using a liquid scintillation cocktail (Microscint 0, Packard).
These parameters were obtained by Hill equation curve fitting.

Where [8] appears, read: rat hypothalamus, [3H]NE, 20 min./37° C.

Several values for one entry are separate records, joined by “and”; a condition that tells them apart may be missing. Identical values can stand only once. Counter-ions that a name gives are not always drawn. Like-named read-outs stand apart in the source and are kept apart here.

Usually IC50 stands for the point on the concentration scale where inhibition reaches its midpoint. Regarding O-methyl tramadol [(S,S)-OMT], in assay [1], the half-inhibitory concentration (IC50) worked out at 16 µM.

For the molecule “(+/−)-trans-O-Methyldidesmethyltramadol HCl [(R,S/S,R)-NDMOMT]”, in assay [2], it took 16 µM to reach half-maximal inhibition (IC50).

With `COc1cccc(C2(O)CCCCC2CN(C)C)c1` (racemic) [(R,R/S,S)-Tramadol, reference compound], the concentration for half-maximal inhibition (IC50) in assay [3] is 8.27 µM and 7.64 µM.

Take `COC1(c2cccc(O)c2)CCCCC1CN(C)C` (racemic) [(R,R/S,S)-ODMOMT, (+/−)-cis-Desmethylmethyltramadol]: the concentration for half-maximal inhibition (IC50) in assay [4] was 0.789 µM; in assay [5], 4.92 µM; in assay [1] (setting [8]), 0.12 µM; in assay [2], 2.6 µM; in assay [3], 0.056 µM. Moreover, the “Blocking NE uptake compared with racemic tramadol or (S,S)-ODMT” value in assay [1] is “more effective at blocking NE uptake than racemic tramadol or (S,S)-ODMT”. The “Affinity for the μ receptor compared with ODMT and racemic tramadol” value in assay [6] was “comparable to the corresponding enantiomer/racemate of ODMT, and much greater than that of racemic tramadol”.

Regarding `CN(C)CC1CCCCC1(O)c1cccc(O)c1` (single isomer, unassigned) [(R,R)-ODMT, O-desmethyltramadol, reference compound], the IC50 in assay [4] turned out to be 1.61 µM; in assay [5], 4.53 µM; in assay [2] it was 3.3 µM.

As for `COc1cccc(C2(OC)CCCCC2CN(C)C)c1` [(R,R)-OMT, (R,R)-(+)-O-Methyltramadol], the IC50 in assay [1] stood at 4 µM; in assay [2], 0.65 µM; in assay [3] it was 7.67 µM. Further, the “Blocking 5-HT uptake compared with racemic tramadol and ODMT” value in assay [2] is given as “more effective at blocking at 5-HT uptake than racemic tramadol, (R,R)- or (S,S)-ODMT or racemic ODMT”.

As to `COC1(c2cccc(O)c2)CCCCC1CN(C)C` [(R,R)-ODMOMT, (1R,2R)-(+)-Desmethylmethyltramadol], the IC50 in assay [4] was found to be 0.427 µM; in assay [5], 2.85 µM; in assay [1] (setting [8]), 6.8 µM; in assay [2] it was 2.1 µM; in assay [3], 0.03 µM. For the same molecule, the “Affinity for the μ receptor compared with ODMT and racemic tramadol” value in assay [6] is “comparable to the corresponding enantiomer/racemate of ODMT, and much greater than that of racemic tramadol”.

Turning to `COc1cccc([C@@]2(OC)CCCC[C@H]2CN(C)C)c1.O=C(O)/C=C/C(=O)O` (relative stereo) [(R,S/S,R)-OMT, (+/−)-trans-O-Methyltramadol Fumaric Acid], the IC50 was found to be 0.56 µM in assay [1] (setting [8]); 7.6 µM in assay [7]; 0.29 µM in assay [2]; 3.29 µM in assay [6] (read-out: IC50, opioid binding, μ, rat cerebral cortex, [3H]DAMGO 1 nM, 60 minutes/22° C.). Further, the “Blocking 5-HT uptake compared with racemic tramadol and ODMT” value in assay [2] was “more effective at blocking at 5-HT uptake than racemic tramadol, (R,R)- or (S,S)-ODMT or racemic ODMT”.

In the case of `COc1cccc(C2(OC)CCCCC2CN(C)C)c1` (racemic) [(R,R/S,S)-OMT, O-Methyltramadol], the “Blocking NE uptake compared with racemic tramadol or (S,S)-ODMT” value in assay [1] is listed as “more effective at blocking NE uptake than racemic tramadol or (S,S)-ODMT”. In addition, the results for the IC50 in assay [1], in assay [2] and in assay [3] were 0.029 µM, 0.55 µM and 7.87 µM, respectively. For the same molecule, in assay [2], the “Blocking 5-HT uptake compared with racemic tramadol and ODMT” value was “more effective at blocking at 5-HT uptake than racemic tramadol, (R,R)- or (S,S)-ODMT or racemic ODMT”.

Regarding `CNCCCC1c2ccccc2C=Cc2ccccc21` [Protriptyline, reference compound], the half-inhibitory concentration (IC50) in assay [1] is 0.04 µM and 0.026 µM.

Regarding `CN(C)CC1CCCCC1(O)c1cccc(O)c1` (racemic) [(R,R/S,S)-ODMT, O-desmethyltramadol, reference compound], the IC50 in assay [4] is 3.15 µM; in assay [5] it was 7.71 µM; in assay [2] it was 4 µM.

In the case of `CN(C)CC1CCCCC1(O)c1cccc(O)c1` (single isomer, unassigned) [(S,S)-ODMT, HCl, reference compound], the values for the concentration for half-maximal inhibition (IC50) in assay [1] (setting [8]) and in assay [2] (HCl) were 7.1 µM and 4.4 µM, respectively.

Turning to `CO[C@@]1(c2cccc(O)c2)CCCC[C@H]1CN(C)C` [(S,S)-ODMOMT, (1S,2S)-(−)-Desmethylmethyltramadol], the concentration for half-maximal inhibition (IC50) in assay [4] was determined as 2.44 µM; in assay [1] (setting [8]) it was 0.051 µM; in assay [2], 5 µM; in assay [3] it was 0.566 µM. Also, the “Blocking NE uptake compared with racemic tramadol or (S,S)-ODMT” value in assay [1] is “more effective at blocking NE uptake than racemic tramadol or (S,S)-ODMT”. In addition, in assay [6], the “Affinity for the μ receptor compared with ODMT and racemic tramadol” value was “comparable to the corresponding enantiomer/racemate of ODMT, and much greater than that of racemic tramadol”.
